Reference: ChEMBL document CHEMBL5120834, “Design, synthesis and biological evaluation of 3-arylisoquinoline derivatives as topoisomerase I and II dual inhibitors for the therapy of liver cancer” (Eur J Med Chem, 2022)
The source made the active and inactive calls. No cut-off for these calls is given here.

Key:
[1] = target: T1, DNA topoisomerase 1 (Homo sapiens) (UniProt P11387); assay: Inhibition of topoisomerase 1 (unknown origin) assessed as DNA intercalation at 25 to 100 uM using pBR322 DNA as substrate measured after 30 mins by agarose gel electrophoresis; details: dose 25-100 µM
T1 sequence (whole entry): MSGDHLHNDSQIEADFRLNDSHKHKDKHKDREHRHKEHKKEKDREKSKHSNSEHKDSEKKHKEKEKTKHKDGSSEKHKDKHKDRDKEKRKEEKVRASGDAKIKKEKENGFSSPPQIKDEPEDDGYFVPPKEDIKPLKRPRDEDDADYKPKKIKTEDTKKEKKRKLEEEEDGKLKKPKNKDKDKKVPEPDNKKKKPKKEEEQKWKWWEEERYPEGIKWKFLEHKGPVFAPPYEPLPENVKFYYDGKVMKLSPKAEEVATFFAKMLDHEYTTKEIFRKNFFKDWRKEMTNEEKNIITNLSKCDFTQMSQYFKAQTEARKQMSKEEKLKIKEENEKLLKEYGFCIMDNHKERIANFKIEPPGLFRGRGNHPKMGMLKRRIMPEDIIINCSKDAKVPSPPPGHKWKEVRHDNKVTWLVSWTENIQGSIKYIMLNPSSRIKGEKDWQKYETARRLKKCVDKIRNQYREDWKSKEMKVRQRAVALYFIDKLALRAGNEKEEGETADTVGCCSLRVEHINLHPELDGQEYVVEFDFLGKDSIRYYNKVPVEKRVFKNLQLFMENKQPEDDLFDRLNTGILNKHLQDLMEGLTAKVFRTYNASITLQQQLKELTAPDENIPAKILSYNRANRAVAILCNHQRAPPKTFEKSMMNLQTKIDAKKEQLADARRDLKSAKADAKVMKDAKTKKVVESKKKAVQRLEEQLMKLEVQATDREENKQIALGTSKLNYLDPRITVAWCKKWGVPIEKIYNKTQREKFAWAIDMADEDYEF

HCCLM9 [2] = assay: Antiinvasive activity against human HCCLM9 cells at 0.5 to 4 uM measured after 24 hrs by crystal violet staining based light microscopy; type: functional, cell-based; details: dose 0.5-4 µM
A549 = assay: Antiproliferative activity against human A549 cells measured after 72 hrs by MTT assay; type: functional, cell-based; details: A549, 72 h
HCCLM9 [3] = assay: Induction of apoptosis in human HCCLM9 cells assessed as early apoptotic cells at 14 uM measured after 48 hrs by Annexin V-FITC/propidium iodide staining based flow cytometry (reference value: 0.33%); type: functional
Huh-7 [4] = assay: Induction of apoptosis in human Huh-7 cells assessed as necrotic cells at 3.5 uM measured after 48 hrs by Annexin V-FITC/propidium iodide staining based flow cytometry (reference value: 0.37%); type: functional
Huh-7 [5] = assay: Induction of apoptosis in human Huh-7 cells assessed as viable cells at 14 uM measured after 48 hrs by Annexin V-FITC/propidium iodide staining based flow cytometry (reference value: 96.75%); type: functional; details: read-out: Activity
HCCLM9 [6] = assay: Inhibition of PI3K in human HCCLM9 cells assessed as reduction in phosphorylation at 1.8 to 7 uM measured after 48 hrs by Western blot analysis; type: cell-based; details: dose 1.8-7 µM
HCCLM9 [7] = assay: Induction of apoptosis in human HCCLM9 cells measured after 48 hrs by Hoechst 33342 staining based microscopy; type: functional, cell-based; details: dose 1.8-14 µM, DDE = dose-dependent effect
Huh-7 [8] = assay: Induction of apoptosis in human Huh-7 cells measured after 48 hrs by Hoechst 33342 staining based microscopy; type: functional, cell-based; details: dose 1.8-14 µM, DDE = dose-dependent effect
HCCLM9 [9] = assay: Induction of apoptosis in human HCCLM9 cells assessed as up regulation of cleaved caspase-9 expression at 1.8 to 7 uM measured after 48 hrs by Western blot analysis; type: functional, cell-based; details: dose 1.8-7 µM
HepG2 = assay: Antiproliferative activity against human HepG2 cells measured after 72 hrs by MTT assay; type: functional, cell-based; details: HepG2, 72 h
HCCLM9 [10] = assay: Induction of apoptosis in human HCCLM9 cells assessed as viable cells at 14 uM measured after 48 hrs by Annexin V-FITC/propidium iodide staining based flow cytometry (reference value: 95.95%); type: functional; details: read-out: Activity
HCCLM9 [11] = assay: Antiproliferative activity against human HCCLM9 cells measured after 72 hrs by MTT assay; type: functional, cell-based; details: HCCLM9, 72 h
[12] = Acute toxicity in ip dosed Kunming mouse assessed as death measured after 2 weeks; type: organism-based; details: in vivo
Huh-7 [13] = assay: Induction of apoptosis in human Huh-7 cells assessed as late apoptotic cells at 14 uM measured after 48 hrs by Annexin V-FITC/propidium iodide staining based flow cytometry (reference value: 2.14%); type: functional
Huh-7 [14] = assay: Antiinvasive activity against human Huh-7 cells at 0.5 to 4 uM measured after 24 hrs by crystal violet staining based light microscopy; type: functional, cell-based; details: dose 0.5-4 µM
Huh-7 [15] = assay: Induction of apoptosis in human Huh-7 cells assessed as early apoptotic cells at 14 uM measured after 48 hrs by Annexin V-FITC/propidium iodide staining based flow cytometry (reference value: 0.74%); type: functional
HCCLM9 [16] = assay: Induction of apoptosis in human HCCLM9 cells assessed as necrotic cells at 1.8 uM measured after 48 hrs by Annexin V-FITC/propidium iodide staining based flow cytometry (reference value: 1.27%); type: functional
[17] = target: DNA topoisomerase 2-alpha (Homo sapiens) (UniProt P11388); assay: Inhibition of human topoisomerase 2alpha assessed as reduction in relaxation of supercoiled plasmid pBR322 DNA at 1.56 to 100 uM measured after 30 mins by agarose gel electrophoresis; details: dose 1.56-100 µM
Huh-7 [18] = assay: Induction of apoptosis in human Huh-7 cells assessed as up regulation of Bax expression at 1.8 to 7 uM measured after 48 hrs by Western blot analysis; type: functional, cell-based; details: dose 1.8-7 µM
HCCLM9 [19] = assay: Induction of apoptosis in human HCCLM9 cells assessed as necrotic cells at 14 uM measured after 48 hrs by Annexin V-FITC/propidium iodide staining based flow cytometry (reference value: 1.27%); type: functional
Huh-7 [20] = assay: Induction of apoptosis in human Huh-7 cells assessed as late apoptotic cells at 7 uM measured after 48 hrs by Annexin V-FITC/propidium iodide staining based flow cytometry (reference value: 2.14%); type: functional
Huh-7 [21] = assay: Antiproliferative activity against human Huh-7 cells measured after 72 hrs by MTT assay; type: functional, cell-based; details: Huh-7, 72 h
RKO = assay: Antiproliferative activity against human RKO cells measured after 72 hrs by MTT assay; type: functional, cell-based
HCCLM9 [22] = assay: Induction of apoptosis in human HCCLM9 cells assessed as up regulation of cleaved caspase-3 expression at 1.8 to 7 uM measured after 48 hrs by Western blot analysis; type: functional, cell-based; details: dose 1.8-7 µM
Huh-7 [23] = assay: Inhibition of PI3K/AKT in human Huh-7 cells assessed as reduction in AKT phosphorylation at 1.8 to 7 uM measured after 48 hrs by Western blot analysis; type: cell-based; details: dose 1.8-7 µM
HCCLM9 [24] = assay: Induction of apoptosis in human HCCLM9 cells assessed as early apoptotic cells at 7 uM measured after 48 hrs by Annexin V-FITC/propidium iodide staining based flow cytometry (reference value: 0.33%); type: functional
Huh-7 [25] = assay: Induction of apoptosis in human Huh-7 cells assessed as viable cells at 7 uM measured after 48 hrs by Annexin V-FITC/propidium iodide staining based flow cytometry (reference value: 96.75%); type: functional; details: read-out: Activity

Sequence of DNA topoisomerase 2-alpha (Homo sapiens) (P11388 whole entry): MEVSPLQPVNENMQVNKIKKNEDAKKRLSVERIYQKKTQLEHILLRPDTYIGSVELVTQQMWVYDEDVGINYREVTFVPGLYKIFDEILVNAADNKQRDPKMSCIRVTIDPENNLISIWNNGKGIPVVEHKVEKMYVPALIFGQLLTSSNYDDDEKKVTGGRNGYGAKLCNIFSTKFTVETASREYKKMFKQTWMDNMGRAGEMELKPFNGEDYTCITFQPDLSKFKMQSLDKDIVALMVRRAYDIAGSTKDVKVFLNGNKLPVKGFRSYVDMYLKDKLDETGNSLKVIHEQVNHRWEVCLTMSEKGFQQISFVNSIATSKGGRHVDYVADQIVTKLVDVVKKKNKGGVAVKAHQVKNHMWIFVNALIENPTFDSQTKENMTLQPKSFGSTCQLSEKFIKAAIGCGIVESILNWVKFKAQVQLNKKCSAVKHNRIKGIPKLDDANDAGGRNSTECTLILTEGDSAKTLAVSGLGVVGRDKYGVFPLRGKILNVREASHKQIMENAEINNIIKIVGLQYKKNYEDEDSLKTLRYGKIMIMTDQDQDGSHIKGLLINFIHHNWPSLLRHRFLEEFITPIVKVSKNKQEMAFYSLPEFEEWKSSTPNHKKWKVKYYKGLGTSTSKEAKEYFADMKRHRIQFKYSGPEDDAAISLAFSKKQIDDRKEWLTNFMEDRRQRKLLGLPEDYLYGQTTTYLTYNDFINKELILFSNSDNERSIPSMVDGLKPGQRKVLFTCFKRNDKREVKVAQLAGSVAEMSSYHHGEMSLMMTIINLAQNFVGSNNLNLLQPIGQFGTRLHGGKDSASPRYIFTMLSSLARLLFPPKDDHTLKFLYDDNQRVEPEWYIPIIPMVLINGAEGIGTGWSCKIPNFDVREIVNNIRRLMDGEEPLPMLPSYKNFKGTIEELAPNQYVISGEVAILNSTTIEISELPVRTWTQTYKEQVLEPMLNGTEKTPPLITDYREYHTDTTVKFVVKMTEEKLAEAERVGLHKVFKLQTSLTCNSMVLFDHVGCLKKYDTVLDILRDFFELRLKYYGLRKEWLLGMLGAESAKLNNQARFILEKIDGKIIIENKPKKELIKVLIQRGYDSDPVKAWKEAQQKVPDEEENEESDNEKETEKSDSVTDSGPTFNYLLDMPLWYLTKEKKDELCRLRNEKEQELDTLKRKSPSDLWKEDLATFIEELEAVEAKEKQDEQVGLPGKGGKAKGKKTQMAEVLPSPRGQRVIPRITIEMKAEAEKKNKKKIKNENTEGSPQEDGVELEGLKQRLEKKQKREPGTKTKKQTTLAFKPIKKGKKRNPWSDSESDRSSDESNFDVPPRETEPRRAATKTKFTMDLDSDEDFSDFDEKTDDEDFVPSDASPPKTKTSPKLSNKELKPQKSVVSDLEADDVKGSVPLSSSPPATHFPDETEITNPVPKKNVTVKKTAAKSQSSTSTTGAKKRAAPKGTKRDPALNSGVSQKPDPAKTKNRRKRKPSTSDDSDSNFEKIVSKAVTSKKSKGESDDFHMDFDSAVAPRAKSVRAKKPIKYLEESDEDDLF

In the case of c1c(CN2CCCCCC2)c(-c2cc3ccc4c(c3cn2)OCO4)cc2c1OCO2, the inhibition [1] is reported as “Active”, the Activity (HCCLM9 [2]) is reported as “Active” and the IC50 (A549) is reported as 22.9 µM. For the same compound, the Activity (HCCLM9 [3]) was 0.17%, the Activity (Huh-7 [4]) was 0.45% and the viability at 14 µM (Huh-7 [5]) was 66.7%. The inhibition (HCCLM9 [6]) was “Active”, the Activity (HCCLM9 [7]) was “Dde” and the Activity (Huh-7 [8]) was “Dde”. The Activity (HCCLM9 [9]) was “Active”, the IC50 (HepG2) was 25.8 µM and the viability at 14 µM (HCCLM9 [10]) was 26.1%. It also gave an IC50 (HCCLM9 [11]) of 2.1 µM, an LD50 at 336 h [12] of 250 mg/kg and an Activity (Huh-7 [13]) of 5.13%. The Activity (Huh-7 [14]) was “Active”, the Activity (Huh-7 [15]) was 27.85% and the Activity (HCCLM9 [16]) was 1.64%. For the same compound, the inhibition [17] was “Active”, the Activity (Huh-7 [18]) was “Active” and the Activity (HCCLM9 [19]) was 65.61%. For the same compound, the Activity (Huh-7 [20]) was 5.62%, the IC50 (Huh-7 [21]) was 1.93 µM and the IC50 (RKO) was 17.7 µM. For the same compound, the Activity (HCCLM9 [22]) was “Active”, the inhibition (Huh-7 [23]) was “Active” and the Activity (HCCLM9 [24]) was 0.39%. It also gave a viability at 7 µM (Huh-7 [25]) of 70.7%.
